Measured values from patent EP2902035B1, “Cell-permeable peptide inhibitors of the JNK signal transduction pathway for use in the treatment of inflammatory eye diseases” (Xigen Inflammation Ltd., priority 2010, dated 2012).

Experiments:
[1] = test system: phospho-p44/42 MAPK (Erk1/2); experiment: Immunohistochemistry of p-Erk1/2 on ocular sections in EIU; assay type: in vivo, Lewis rats; settings: 24h
Description: A second set of experiment was designed to evaluate the anti-inflammatory effect of the JNK-inhibitor (poly-)peptide of SEQ ID NO: 11 at the cellular and tissue level as well as the biodistribution of this molecule 24 hours after administration. Rats were randomized into 11 experimental groups. 6 groups of rats with uveitis: untreated uveitic rats, rats injected intravenously with NaCl or the JNK-inhibitor (poly-)peptide of SEQ ID NO: 11 and rats injected intravitreously with the vehicle, the JNK-inhibitor (poly-)peptide of SEQ ID NO: 11 or dexamethasone. The 5 additional groups without uveitis were: untreated healthy rats, rats treated by NaCl IV or the JNK-inhibitor (poly-)peptide of SEQ ID NO: 11 IV and rats injected IVT with NaCl or the JNK-inhibitor (poly-)peptide of SEQ ID NO: 11. Three eyes from separate rats were collected per group and used for immunohistochemistry. Immunostaining of p-Erk1/2 was performed to evaluate the effect of the JNK-inhibitor (poly-)peptide of SEQ ID NO: 11 on the ERK pathway after IV or IVT administration. Sections were permeabilized as described above and incubated in blocking solution containing 0.1% Triton X-100 and 10% FCS (fetal calf serum) in PBS for 1 hour at room temperature. […]

[2] = test system: c-Jun phosphorylation (JNK pathway); experiment: Western-Blot analysis of c-Jun phosphorylation in RPE/choroid in EIU; assay type: in vivo, Lewis rats; settings: for relative band intensity for phospho c-Jun in comparison to tubulin (densitometry): EIU
Description: Retinas and RPE/choroid/sclera complexes were carefully dissected out on enucleated eyes, snap frozen and stored at -80°C until being used for RT-PCR and Western-Blot analyses.
Retinas and RPE/choroid/sclera complexes were also collected at 24 hours to analyze iNOS mRNA levels by RT-PCR and c-Jun phosphorylation state by Western-Blot. Tissues were collected only from eyes treated by IV (intravenous) injection of vehicle, IV injection of the JNK-inhibitor (poly-)peptide of SEQ ID NO: 11, IVT (intravitreal) injection of vehicle and IVT injection of the JNK-inhibitor (poly-)peptide of SEQ ID NO: 11 (n=2 eyes per condition collected from separate rats). Eyes were selected so that their EIU clinical score was representative of the mean of the experimental group they belong to, i.e 3 for eyes treated by IV and IVT injection of vehicle and 2 for eyes treated by IV or IVT injection of the JNK-inhibitor (poly-)peptide of SEQ ID NO: 11.
RPE/choroid/sclera complexes and neuroretinas (2 per experimental group) were snap frozen immediately after dissection and stored at -80°C until use. Tissues were homogenized in 500 µL of lysis buffer (MOPS SDS Running Buffer, Invitrogen, Cergy-Pontoise, France) supplemented with protease inhibitor cocktail (Roche Diagnostics, Meylan, France) (one tablet for 50 mL). After addition of LDS Sample Buffer (Invitrogen) and heating for 5 min at 100°C, equal amounts of proteins were subjected to electrophoresis in a NuPAGE 4-12% Bis-Tris gel (Invitrogen) using MOPS SDS Running Buffer. The bands obtained were then electrotransferred onto nitrocellulose membranes (Schleicher & Schuell BioScience, Dassel, Germany).
Western-blot analyses were carried out to analyze the effect of the JNK-inhibitor (poly-)peptide of SEQ ID NO: 11 on the three mitogen-activated protein kinase (MAPK) pathways. To analyze the JNK pathway, blots were sequentially incubated with a rabbit Phospho-c-Jun (Ser63) primary antibody (or Phospho-c-Jun (Ser73) antibody) and an anti-rabbit IgG HRP-linked secondary antibody according to the manufacturer's instruction (PhosphoPlus c-Jun (Ser63) II and c-Jun (Ser73) antibody kit (9260) purchased from Cell Signaling Technology (Ozyme, St Quentin Yvelines, France)). Bands were visualized using the ECL Western Blotting Detection Reagents Kit (Amersham Biosciences, Orsay, France). […] The relative band intensity for phospho c-Jun (Ser 63 or Ser73) was calculated in comparison to that for -tubulin after densitometry analysis (ImageJ software).

CC(C)C[C@@H](NC(=O)[C@@H](Cc1ccccc1)NC(=O)[C@H]1CCCN1C(=O)[C@@H](CCC(N)=O)NC(=O)[C@H](NC(=O)[C@H]1CCCN1C(=O)[C@@H](CCCNC(=N)N)NC(=O)[C@@H](CO)NC(=O)[C@@H](CCC(N)=O)NC(=O)[C@H](N)CC(=O)O)C(C)C)C(=O)N[C@H](CC(N)=O)C(=O)N[C@H](CC(C)C)C(=O)N[C@@H](C(=O)N[C@@H](C(=O)N1CCC[C@@H]1C(=O)N[C@H](CCCNC(=N)N)C(=O)N[C@H](CCCCN)C(=O)N1CCC[C@@H]1C(=O)N[C@H](CCCNC(=N)N)C(=O)N1CCC[C@@H]1C(=O)N1CCC[C@@H]1C(=O)N[C@H](CCCNC(=N)N)C(=O)N[C@H](CCCNC(=N)N)C(=O)N[C@H](CCCNC(=N)N)C(=O)N[C@H](CCC(N)=O)C(=O)N[C@H](CCCNC(=N)N)C(=O)N[C@H](CCCNC(=N)N)C(=O)N[C@H](CCCCN)C(=O)N[C@H](CCCCN)C(=O)N[C@H](CCCNC(=N)N)C(=O)NCC(=O)O)[C@H](C)O)[C@H](C)O [SEQ ID NO: 11]
effect on p-Erk1/2 signal in the iris epithelium ([1]; iris epithelium): no effect
effect on p-Erk1/2 in retinal Müller glial (RMG) cells ([1]; neuroretina, administered by either route (IV or IVT)): no effect
Phosphorylation of c-Jun on Ser63 and Ser73 residues ([2]; RPE/ choroid extracts, 24 hours after intravenous or intravitreous injection): reduced
relative band intensity for phospho c-Jun in comparison to tubulin (densitometry) ([2]; RPE/ choroid, 24 hours after IV (20 µg/kg)): 0.28 ± 0.01
relative band intensity for phospho c-Jun in comparison to tubulin (densitometry) ([2]; RPE/ choroid, 24 hours after IVT (0.2 µg/injection)): 0.35 ± 0.08
decrease in c-Jun phosphorylation ([2]; RPE/ choroid, after IV or IVT administration, versus vehicle): approximately 3 fold
